Reference: patent US11773096B2, “Small-molecule PI5P4K alpha/beta inhibitors and methods of treatment using same” (YALE UNIVERSITY, priority 2018, dated 2023)

How the values were obtained:
BT474 cells [1] = experiment: Immunoblot analysis in BT474 cells; format: cell-based
Method: (§1) After wash with cold DPBS buffer, cells were lysed in RIPA buffer that contained 50 mM Tris-HCl pH 8.0, 150 mM NaCl, 1 mM EDTA, 1 mM EGTA, 1% NP-40, 0.5% sodium deoxycholate, 0.1% SDS, and protease and phosphatase inhibitor cocktails (Roche). Total protein concentrations were measured using a BCA assay (Thermo scientific). Cell lysate (about 80 μg protein) was resolved by SDS-PAGE and blotted onto PVDF membranes. The membranes were probed overnight at 4° C. with appropriate primary antibodies (Cell Signaling Technology) and incubated with secondary fluorescent antibodies (LI-COR Biosciences) for 1 hr at room temperature before imaging by an Odyssey CLx system.

myotubes = experiment: Glucose consumption and lactate production in myotube culture media; format: cell-based
Method: To measure glucose consumption and lactate production, a total of 1×10^5 cells were seeded into each well of a 12-well plate and cultured in the presence of compound for 48 hrs. The culture media were collected and deproteinized by centrifugation using an Amicon Ultra centrifugal filter (3 kDa cut-off), while cells were lysed and used for protein concentration determination by BCA assay. The media were assayed immediately for glucose and lactate levels using colorimetric assay kits from BioVision following the manufacturer's protocols. The values were normalized against protein concentration. All measurements were made in triplicate.

L6 myotubes [2] = experiment: Immunoblot analysis of ACC phosphorylation in L6 myotubes; format: cell-based, rat; conditions: dose-dependent
Method: BT-474 and MCF7 breast cancer cells, C2Cl2 mouse myoblast cells, and HEK 293T cells were maintained in high-glucose DMEM medium containing 10% FBS. L6 rat myoblast cells were maintained in α-MEM medium containing 10% FBS. For differentiation into myotubes, C2Cl2 cells were kept in DMEM medium containing 2% horse serum for 5 days, and L6 cells were kept in α-MEM medium containing 2% FBS for 7 days. Amino-acid-free DMEM medium was prepared using powder from USBio, and MEM amino acids solution was from Gibco. Media were all supplemented with 100 U/ml penicillin/streptomycin. Cell lines were purchased from ATCC.
as §1

Plk1 = Plk1 (Homo sapiens, UniProt P53350); experiment: HotSpot protein kinase panel; conditions: read-out: Plk1 activity remaining
Method: (§2) In both titrations, the ATP concentration was fixed at 50 μM. The assay kits for Plk1 and RSK2 were obtained from Promega (Madison, Wis.), which use ADP-Glo™ for activity detection.

PI3Kγ = PI3Kγ (Homo sapiens, UniProt P48736); experiment: Lipid kinase panel (ADP-Glo)
PI3Kγ, sequence (P48736 whole entry, species assumed): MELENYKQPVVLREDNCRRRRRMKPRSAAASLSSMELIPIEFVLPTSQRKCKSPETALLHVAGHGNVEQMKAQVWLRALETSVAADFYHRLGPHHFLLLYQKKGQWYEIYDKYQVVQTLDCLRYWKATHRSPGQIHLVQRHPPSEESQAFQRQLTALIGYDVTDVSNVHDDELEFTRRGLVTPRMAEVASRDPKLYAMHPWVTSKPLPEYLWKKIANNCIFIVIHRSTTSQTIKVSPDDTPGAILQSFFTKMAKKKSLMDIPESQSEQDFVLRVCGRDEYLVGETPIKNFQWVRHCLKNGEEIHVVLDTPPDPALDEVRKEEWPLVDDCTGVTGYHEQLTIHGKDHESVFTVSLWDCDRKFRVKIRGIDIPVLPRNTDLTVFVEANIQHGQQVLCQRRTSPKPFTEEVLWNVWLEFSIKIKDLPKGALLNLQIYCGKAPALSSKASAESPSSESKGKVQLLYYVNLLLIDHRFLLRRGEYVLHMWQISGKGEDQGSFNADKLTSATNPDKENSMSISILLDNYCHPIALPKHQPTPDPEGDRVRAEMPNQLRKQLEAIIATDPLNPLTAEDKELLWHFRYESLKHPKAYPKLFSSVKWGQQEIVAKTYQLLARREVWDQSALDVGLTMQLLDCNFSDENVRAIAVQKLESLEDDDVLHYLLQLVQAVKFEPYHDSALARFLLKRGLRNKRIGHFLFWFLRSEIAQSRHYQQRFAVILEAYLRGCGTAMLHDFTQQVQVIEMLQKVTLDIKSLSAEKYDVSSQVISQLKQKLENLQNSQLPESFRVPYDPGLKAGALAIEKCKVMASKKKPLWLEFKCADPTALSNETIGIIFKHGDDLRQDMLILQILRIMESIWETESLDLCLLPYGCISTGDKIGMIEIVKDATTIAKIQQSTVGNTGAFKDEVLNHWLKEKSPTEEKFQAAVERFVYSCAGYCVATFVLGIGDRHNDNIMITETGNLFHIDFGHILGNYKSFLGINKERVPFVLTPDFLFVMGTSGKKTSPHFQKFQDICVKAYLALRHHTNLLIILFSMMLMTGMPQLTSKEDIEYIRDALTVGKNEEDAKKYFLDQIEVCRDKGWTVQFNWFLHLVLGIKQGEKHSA
Method: In both titrations, the ATP concentration was fixed at 50 μM.

TYRO3 = TYRO3 (Homo sapiens, UniProt Q06418); experiment: HotSpot protein kinase panel; conditions: read-out: TYRO3 activity remaining
PI4P5Kγ = PI4P5Kγ (Homo sapiens, UniProt O60331); experiment: Lipid kinase panel (ADP-Glo); conditions: read-out: PI4P5Kγ activity remaining
PI4P5Kγ, sequence (O60331 whole entry): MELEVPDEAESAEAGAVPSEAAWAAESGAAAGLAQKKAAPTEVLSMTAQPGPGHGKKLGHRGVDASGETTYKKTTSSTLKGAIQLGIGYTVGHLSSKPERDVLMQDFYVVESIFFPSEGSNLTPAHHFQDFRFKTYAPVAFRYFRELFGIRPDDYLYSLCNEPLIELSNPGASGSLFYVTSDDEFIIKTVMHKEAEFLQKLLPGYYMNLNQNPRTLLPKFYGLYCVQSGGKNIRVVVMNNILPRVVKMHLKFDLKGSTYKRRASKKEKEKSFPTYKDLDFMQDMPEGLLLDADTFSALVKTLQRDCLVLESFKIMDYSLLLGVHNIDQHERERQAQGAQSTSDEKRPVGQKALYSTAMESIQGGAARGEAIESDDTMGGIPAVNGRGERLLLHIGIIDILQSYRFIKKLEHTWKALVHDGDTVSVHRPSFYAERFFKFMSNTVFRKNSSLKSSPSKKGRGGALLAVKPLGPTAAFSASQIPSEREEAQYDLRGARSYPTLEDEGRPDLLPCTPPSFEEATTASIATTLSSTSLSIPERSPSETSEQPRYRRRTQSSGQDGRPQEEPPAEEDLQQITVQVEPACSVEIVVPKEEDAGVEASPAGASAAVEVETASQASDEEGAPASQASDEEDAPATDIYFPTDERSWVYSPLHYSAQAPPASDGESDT

L6 myotubes [3] = experiment: 2-deoxyglucose uptake; format: cell-based, rat; conditions: overnight treatment with 20 μM 7a or 1 mM metformin
Method: To measure 2-deoxyglucose (2-DG) uptake, L6 myotubes were treated with compound or DMSO control overnight in the absence of serum in α-MEM. Following treatment, cells were washed twice with KRH buffer (50 mM HEPES pH 7.4, 137 mM NaCl, 4.7 mM KCl, 1.85 mM CaCl2, 1.3 mM MgSO4) containing 0.1% BSA. Residual wash buffer was removed by aspiration. Cells were then incubated for 10 min at 37° C. in a KRH buffer containing 0.1% BSA, 5 mM unlabeled 2-DG and 2 μCi/ml [1,2-^3H(N)]-2-deoxy-D-glucose (PerkinElmer). The uptake was terminated by washing four times with ice-cold KRH buffer containing 0.1% BSA. Nonspecific 2-DG uptake into cells was determined in the presence of 10 μM cytochalasin B, which inhibits glucose transporters, and subtracted. The cells were lysed with 0.05 M NaOH for 2 hrs at 37° C. 10 μl cell lysate was used to quantify protein concentration by BCA assay. The remaining sample was transferred to a scintillation vial containing 3 ml Opti-Fluor liquid scintillation cocktail (PerkinElmer), and radioactivity was determined using a Beckman Coulter LS 6500 scintillation system and normalized against protein concentration.

MCF7 cells = experiment: Immunoblot analysis of AMPK activation in MCF7 cells; format: cell-based
Method: as §1

BT474 cells [4] = experiment: Cell cycle analysis by flow cytometry; format: cell-based
Method: To monitor cell cycle progression, cells were harvested by trypsinization, washed with DPBS, and fixed with cold 70% ethanol for 30 min at 4° C. Before analysis, 2×10^6 cells were washed with DPBS three times and treated with 100 μl 100 μg/ml ribonuclease (DNase-free; Sigma Aldrich) for 10 min at room temperature. Samples were then stained for total DNA using 400 μl DPBS containing 50 μg/ml propidium iodide (Invitrogen). Cell cycle distribution was analyzed by a BD LSR II flow cytometer.

RSK2 = RSK2 (Homo sapiens, UniProt P51812); experiment: HotSpot protein kinase panel; conditions: read-out: RSK2 activity remaining
RSK2, sequence (P51812 whole entry): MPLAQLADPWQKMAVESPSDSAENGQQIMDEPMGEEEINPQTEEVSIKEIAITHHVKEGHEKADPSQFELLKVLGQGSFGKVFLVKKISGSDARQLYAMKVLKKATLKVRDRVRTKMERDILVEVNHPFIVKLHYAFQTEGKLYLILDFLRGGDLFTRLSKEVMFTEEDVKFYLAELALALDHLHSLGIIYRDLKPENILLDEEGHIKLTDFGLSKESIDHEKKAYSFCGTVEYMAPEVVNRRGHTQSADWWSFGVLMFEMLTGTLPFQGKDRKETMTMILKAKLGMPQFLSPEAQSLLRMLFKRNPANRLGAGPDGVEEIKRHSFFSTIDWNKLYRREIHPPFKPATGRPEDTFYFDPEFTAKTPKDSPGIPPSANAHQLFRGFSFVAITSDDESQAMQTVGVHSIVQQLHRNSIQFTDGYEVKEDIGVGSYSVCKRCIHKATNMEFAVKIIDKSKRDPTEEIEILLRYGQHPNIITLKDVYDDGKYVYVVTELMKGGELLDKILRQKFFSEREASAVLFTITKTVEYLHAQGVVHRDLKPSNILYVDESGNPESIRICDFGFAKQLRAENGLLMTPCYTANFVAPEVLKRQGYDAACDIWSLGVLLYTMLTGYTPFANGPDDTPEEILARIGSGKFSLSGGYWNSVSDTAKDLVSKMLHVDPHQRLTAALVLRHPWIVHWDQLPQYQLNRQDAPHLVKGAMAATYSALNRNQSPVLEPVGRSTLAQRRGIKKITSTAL
Method: as §2

NEK11 = NEK11 (Homo sapiens, UniProt Q8NG66); experiment: HotSpot protein kinase panel; conditions: read-out: NEK11 activity remaining
NEK11, sequence (Q8NG66 whole entry): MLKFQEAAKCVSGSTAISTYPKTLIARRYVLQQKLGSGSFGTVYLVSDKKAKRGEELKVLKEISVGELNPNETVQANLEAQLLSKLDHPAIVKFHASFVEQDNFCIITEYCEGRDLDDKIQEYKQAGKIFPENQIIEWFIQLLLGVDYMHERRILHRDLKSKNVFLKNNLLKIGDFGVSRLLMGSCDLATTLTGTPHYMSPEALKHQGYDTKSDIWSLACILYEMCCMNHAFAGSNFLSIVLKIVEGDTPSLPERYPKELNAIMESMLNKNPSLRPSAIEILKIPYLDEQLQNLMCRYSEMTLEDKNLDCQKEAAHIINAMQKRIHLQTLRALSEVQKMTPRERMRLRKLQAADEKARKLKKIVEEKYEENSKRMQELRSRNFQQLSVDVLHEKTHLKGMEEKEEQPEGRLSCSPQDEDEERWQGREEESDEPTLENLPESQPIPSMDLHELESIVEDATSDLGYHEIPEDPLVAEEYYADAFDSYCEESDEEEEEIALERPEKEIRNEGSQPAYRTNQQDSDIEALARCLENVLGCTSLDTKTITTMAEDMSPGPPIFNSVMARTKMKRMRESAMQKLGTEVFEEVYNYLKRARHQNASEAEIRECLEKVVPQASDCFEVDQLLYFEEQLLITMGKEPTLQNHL

mTOR/FRAP1 = mTOR/FRAP1 (Homo sapiens, UniProt P42345); experiment: In vitro kinase profiling; format: biochemical
TNIK = TNIK (Homo sapiens, UniProt Q9UKE5); experiment: HotSpot protein kinase panel; conditions: read-out: TNIK activity remaining
TNIK, sequence (Q9UKE5 whole entry): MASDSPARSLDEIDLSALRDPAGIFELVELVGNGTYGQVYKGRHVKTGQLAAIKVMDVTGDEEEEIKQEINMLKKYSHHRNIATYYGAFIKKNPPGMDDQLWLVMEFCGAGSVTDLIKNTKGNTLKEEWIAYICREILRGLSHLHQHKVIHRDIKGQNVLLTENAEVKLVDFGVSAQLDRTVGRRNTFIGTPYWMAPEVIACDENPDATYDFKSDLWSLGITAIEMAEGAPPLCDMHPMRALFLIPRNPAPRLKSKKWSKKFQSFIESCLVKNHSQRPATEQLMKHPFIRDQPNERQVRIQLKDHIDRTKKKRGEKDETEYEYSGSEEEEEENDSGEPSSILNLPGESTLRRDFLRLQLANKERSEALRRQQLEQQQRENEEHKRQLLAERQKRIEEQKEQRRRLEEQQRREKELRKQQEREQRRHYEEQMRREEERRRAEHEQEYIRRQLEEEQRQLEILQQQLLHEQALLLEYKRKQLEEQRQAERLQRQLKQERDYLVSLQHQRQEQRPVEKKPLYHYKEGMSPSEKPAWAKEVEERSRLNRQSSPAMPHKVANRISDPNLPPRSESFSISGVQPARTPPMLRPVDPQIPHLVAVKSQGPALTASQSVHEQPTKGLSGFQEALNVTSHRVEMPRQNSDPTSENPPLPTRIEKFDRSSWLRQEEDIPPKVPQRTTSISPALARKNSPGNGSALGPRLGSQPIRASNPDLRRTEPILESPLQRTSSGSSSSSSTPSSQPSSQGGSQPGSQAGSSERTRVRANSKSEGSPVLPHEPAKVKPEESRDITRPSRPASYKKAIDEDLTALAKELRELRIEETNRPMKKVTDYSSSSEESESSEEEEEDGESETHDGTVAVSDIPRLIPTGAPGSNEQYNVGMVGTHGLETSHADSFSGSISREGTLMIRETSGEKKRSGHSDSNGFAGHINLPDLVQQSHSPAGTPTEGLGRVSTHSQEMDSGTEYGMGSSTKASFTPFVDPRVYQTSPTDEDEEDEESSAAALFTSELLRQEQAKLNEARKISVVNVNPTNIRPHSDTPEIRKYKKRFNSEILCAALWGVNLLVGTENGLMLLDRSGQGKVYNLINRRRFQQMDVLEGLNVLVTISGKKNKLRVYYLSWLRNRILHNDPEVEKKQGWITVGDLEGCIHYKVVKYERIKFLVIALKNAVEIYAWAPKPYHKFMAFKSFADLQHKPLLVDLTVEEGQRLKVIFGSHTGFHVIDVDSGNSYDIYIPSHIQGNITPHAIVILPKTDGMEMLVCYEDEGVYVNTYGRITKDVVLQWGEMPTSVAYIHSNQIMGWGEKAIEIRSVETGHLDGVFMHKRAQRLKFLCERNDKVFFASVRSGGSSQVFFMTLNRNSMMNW
Method: as §2

In the case of CN1C(=O)[C@@H](CC2CCCC2)N(C2CCCC2)c2nc(Nc3cc(Cl)c(O)c(Cl)c3)ncc21 [7a, (R)-8-cyclopentyl-7-(cyclopentylmethyl)-2-((3,5-dichloro-4-hydroxyphenyl)amino)-5-methyl-7,8-dihydropteridin-6(5H)-one], the p38 phosphorylation (BT474 cells [1]; 20 μM) is reported as “increased”, the “levels of cell-cycle inhibitors p21 and p27” value (BT474 cells [1]; BT474) is reported as “increased levels” and the “mTORC1 activity (S6K phosphorylation)” value (BT474 cells [1]; BT474) is reported as “less S6K phosphorylation”. The “AMPK activation (phosphorylation of ACC and raptor)” value (BT474 cells [1]; BT474, 0, 10 and 20 μM) was “activated”, the AMPK activation (BT474 cells [1]; BT474, absence of serum) was “caused AMPK activation” and the AMPK activation (BT474 cells [1]; BT474, with serum, 32° C.) was “no longer caused AMPK activation”. The AMPK activation (BT474 cells [1]; BT474, with serum, 37° C.) was “activated”, the “lactate accumulated in the media” value (myotubes; 48 hours after treatment) was 7.7 mM and the “reduction of glucose concentration in the media” value (myotubes; 48 hours after treatment) was 10.3 mM. The “increase in glucose consumption” value (myotubes; after 2 days of cell culture) was 32%, the “increase in lactate secretion” value (myotubes; after 2 days of cell culture) was 45% and the “phosphorylation of acetyl-CoA carboxylase (ACC)” value (L6 myotubes [2]) was “significantly increased”. It also gave a remaining activity at 0.5 µM (Plk1) of 97%, a Ki (PI3Kγ) of roughly 200 nM and a remaining activity at 0.5 µM (TYRO3) of 72%. For the same compound, the remaining activity at 0.5 µM (PI4P5Kγ) was 98%, the “rate of glucose uptake (labeled 2-deoxyglucose)” value (L6 myotubes [3]) was “doubled” and the AMPK activation (MCF7 cells; MCF7, absence of serum) was “caused AMPK activation”. The AMPK activation (MCF7 cells; MCF7, with serum) was “no longer caused AMPK activation”, the cell cycle distribution (BT474 cells [4]) was “accumulation of cells in the G0/G1 phase” and the remaining activity at 0.5 µM (RSK2) was 83%. For the same compound, the remaining activity at 0.5 µM (NEK11) was 66%, the “inhibition of mTOR/FRAP1 in vitro” value (mTOR/FRAP1) was “did not inhibit” and the remaining activity at 0.5 µM (TNIK) was 73%.
